In patent US20240217947A1, “Morpholinylquinazoline Compound, Pharmaceutical compositions thereof and Use Thereof” (SHANGHAI YINGLI PHARMACEUTICAL CO., LTD, priority 2022, published 2024) one finds IC50 data, which are given here for five compounds.

This test addresses T1, HDAC6 (Homo sapiens, UniProt Q9UBN7).
T1 sequence (Q9UBN7 1-1215): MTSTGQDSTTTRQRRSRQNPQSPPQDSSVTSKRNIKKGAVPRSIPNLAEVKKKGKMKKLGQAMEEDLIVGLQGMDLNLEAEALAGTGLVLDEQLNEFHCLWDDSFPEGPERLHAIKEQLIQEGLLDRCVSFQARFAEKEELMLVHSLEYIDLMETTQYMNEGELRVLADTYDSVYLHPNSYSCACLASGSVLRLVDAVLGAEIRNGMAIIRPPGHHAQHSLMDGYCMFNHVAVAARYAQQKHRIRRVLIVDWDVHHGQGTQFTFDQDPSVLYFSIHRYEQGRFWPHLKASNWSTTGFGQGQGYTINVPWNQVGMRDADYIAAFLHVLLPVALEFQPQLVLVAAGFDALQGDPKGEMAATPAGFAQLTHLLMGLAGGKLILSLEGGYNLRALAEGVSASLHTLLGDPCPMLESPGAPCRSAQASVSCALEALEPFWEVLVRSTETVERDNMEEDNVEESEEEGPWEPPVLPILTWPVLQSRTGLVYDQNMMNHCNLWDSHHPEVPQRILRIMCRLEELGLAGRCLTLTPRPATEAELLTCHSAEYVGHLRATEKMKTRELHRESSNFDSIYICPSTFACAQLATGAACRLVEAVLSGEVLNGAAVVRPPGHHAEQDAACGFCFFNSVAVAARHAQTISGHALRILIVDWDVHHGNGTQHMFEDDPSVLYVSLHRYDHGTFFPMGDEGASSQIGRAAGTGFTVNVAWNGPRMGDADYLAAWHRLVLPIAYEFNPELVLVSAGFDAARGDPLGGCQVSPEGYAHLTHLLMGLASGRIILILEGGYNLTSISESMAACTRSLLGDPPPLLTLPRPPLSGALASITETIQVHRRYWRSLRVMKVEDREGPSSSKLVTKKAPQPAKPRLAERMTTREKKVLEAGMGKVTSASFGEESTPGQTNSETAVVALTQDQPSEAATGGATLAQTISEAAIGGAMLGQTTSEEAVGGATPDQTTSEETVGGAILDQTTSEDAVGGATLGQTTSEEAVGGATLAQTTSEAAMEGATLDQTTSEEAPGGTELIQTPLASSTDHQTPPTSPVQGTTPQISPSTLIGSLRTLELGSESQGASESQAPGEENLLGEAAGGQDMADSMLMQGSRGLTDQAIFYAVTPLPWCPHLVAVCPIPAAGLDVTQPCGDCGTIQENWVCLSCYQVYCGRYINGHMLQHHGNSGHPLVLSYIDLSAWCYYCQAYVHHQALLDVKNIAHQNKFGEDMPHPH
The test can be described thus: HDAC6 enzyme activity inhibition IC50 evaluation experiment. Type of test: biochemical. The following applies: HDAC6 5 nM, acetylated peptide 11 μM, trypsin, fluorescence. As for the experimental part:
Effect Example 2 HDAC1, HDAC2, HDAC3, HDAC6 enzyme activity inhibition IC50 evaluation experiment
Buffer solution (50 mM Tris 7.5, 0.01% Tween-20, 50 mM NaCl) was prepared according to the kit instructions, and the enzyme solution and substrate solution (acetylated peptide with the addition of trypsin) were prepared using the buffer solution. The test compound samples were dissolved with DMSO and added to the screening system at a certain starting concentration such as 10 μM, 3-fold dilution, while setting up a DMSO control and no-enzyme control. The enzyme reaction system includes: buffer, enzyme [final concentration: HDAC1=10 nM, HDAC2=4 nM, HDAC3=7 nM, HDAC6=5 nM], substrate (acetylated peptide) [final concentration: Peptide(HDAC1)=8 μM, Peptide(HDAC2)=10 μM, Peptide(HDAC3)=5 μM, Peptide(HDAC6)=11 μM], trypsin [final concentration: Trypsin(HDAC1,2,3)=0.05 μM, Trypsin(HDAC6)=0.1 μM], etc. The enzymes and compounds were reacted at room temperature for 15 min. After adding the substrate and Trypsin, centrifugation was performed for 1 min, and the fluorescence signal data (excitation wavelength 355 nM/emission wavelength 460 nm) was read continuously for 60 min using Envision, and the linear reaction segment was selected to obtain the slope and thus calculate the inhibition rate at that concentration. The IC50 value was obtained by fitting the curve using the formula Y=Bottom+(Top-Bottom)/(1+(IC50/X)^HillSlope).

The IC50 is the point on the concentration scale where inhibition reaches its midpoint. Lower therefore signals greater potency in that assay.

`COc1ncc(-c2nc(N3CCOCC3)nc3c(OC4CCN(c5ccc(C(=O)NO)cn5)CC4)cc(F)cc23)cc1NS(C)(=O)=O` [Compound 40] registered an IC50 of 10 to 100 nM. The compound `COc1ncc(-c2nc(N3CCOCC3)nc3c(OC4CCN(c5ncc(C(=O)NO)cc5F)CC4)cc(F)cc23)cc1NS(C)(=O)=O` [Compound 30] came in with an IC50 of 10 to 100 nM. Compound `COc1ncc(-c2nc(N3CCOCC3)nc3c(CN4CCN(c5ncc(C(=O)NO)cn5)CC4)cc(F)cc23)cc1NS(C)(=O)=O` [Compound 7] returned an IC50 of 10 to 100 nM. As for `COc1ncc(-c2nc(N3CCOCC3)nc3c(OC4CCN(c5ncc(C(=O)NO)cn5)CC4)cc(F)cc23)cc1NS(C)(=O)=O` [Compound 39], the figure is 100 to 1000 nM; as for `COc1ncc(-c2nc(N3CCOCC3)nc3c(OCCCCCCC(=O)NO)cc(F)cc23)cc1NS(C)(=O)=O` [Compound 9], no more than 10 nM.
